According to ChEMBL document CHEMBL3351874, “Rational design of inhibitors of the bacterial cell wall synthetic enzyme GlmU using virtual screening and lead-hopping” (Bioorg Med Chem, 2014):
pIC50: −log10 of the molar value.

Assays:
[1] = Inhibition of Haemophilus influenzae ATCC 51907 GlmU expressed in Escherichia coli BL21(DE3) incubated for 15 mins prior to MgCl2 addition measured after 30 mins by malachite green staining-based assay
[2] = Serum protein binding in human at 10 uM after 30 mins by ultrafiltration method; format: ADME; conditions: read-out: PB (converted)
[3] = target: Bifunctional protein GlmU (Escherichia coli, UniProt C3SLB7); assay: Inhibition of Escherichia coli ATCC 27325 GlmU expressed in Escherichia coli HMS174(DE3) incubated for 15 mins prior to MgCl2 addition measured after 30 mins by malachite green staining-based assay
[4] = target: Cyclin-dependent kinase 2 (Homo sapiens, UniProt P24941); assay: Inhibition of human CDK2 incubated for 20 mins prior to MgCl2 addition measured after 90 mins by mobility shift assay
[5] = target: Tyrosine-protein kinase JAK1 (Homo sapiens, UniProt P23458); assay: Inhibition of human JAK1 incubated for 20 mins prior to MgCl2 addition measured after 90 mins by mobility shift assay
[6] = target: Interleukin-1 receptor-associated kinase 1 (Homo sapiens, UniProt P51617); assay: Inhibition of human IRAK1 incubated for 20 mins prior to MgCl2 addition measured after 90 mins by mobility shift assay
[7] = target: Cyclin-dependent kinase 9 (Homo sapiens, UniProt P50750); assay: Inhibition of human CDK9 incubated for 20 mins prior to MgCl2 addition measured after 90 mins by mobility shift assay
[8] = target: Tyrosine-protein kinase JAK2 (Homo sapiens, UniProt O60674); assay: Inhibition of human JAK2 incubated for 20 mins prior to MgCl2 addition measured after 90 mins by mobility shift assay
[9] = target: Cyclin-dependent kinase 1 (Homo sapiens, UniProt P06493); assay: Inhibition of human CDK1 incubated for 20 mins prior to MgCl2 addition measured after 90 mins by mobility shift assay
[10] = target: T1, Interleukin-1 receptor-associated kinase 4 (Homo sapiens, UniProt Q9NWZ3); assay: Inhibition of human IRAK4 incubated for 20 mins prior to MgCl2 addition measured after 90 mins by mobility shift assay
T1 sequence (Q9NWZ3 whole entry): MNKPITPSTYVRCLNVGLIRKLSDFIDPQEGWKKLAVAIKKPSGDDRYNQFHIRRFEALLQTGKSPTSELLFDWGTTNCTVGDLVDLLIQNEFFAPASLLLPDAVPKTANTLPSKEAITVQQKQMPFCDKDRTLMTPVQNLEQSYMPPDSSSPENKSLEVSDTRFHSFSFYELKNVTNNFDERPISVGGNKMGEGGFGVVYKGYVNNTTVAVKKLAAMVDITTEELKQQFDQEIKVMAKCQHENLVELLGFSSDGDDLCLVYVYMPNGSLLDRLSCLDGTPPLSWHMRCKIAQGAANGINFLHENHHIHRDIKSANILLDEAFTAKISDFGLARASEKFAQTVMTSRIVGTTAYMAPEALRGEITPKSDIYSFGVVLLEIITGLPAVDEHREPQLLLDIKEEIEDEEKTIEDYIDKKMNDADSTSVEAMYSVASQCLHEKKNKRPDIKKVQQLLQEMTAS

Aurora kinase B = Aurora kinase B (Homo sapiens, UniProt Q96GD4); assay: Inhibition of human AURKB incubated for 20 mins prior to MgCl2 addition measured after 90 mins by mobility shift assay
[11] = target: T2, Tyrosine-protein kinase JAK3 (Homo sapiens, UniProt P52333); assay: Inhibition of human JAK3 incubated for 20 mins prior to MgCl2 addition measured after 90 mins by mobility shift assay
T2 sequence (P52333 whole entry): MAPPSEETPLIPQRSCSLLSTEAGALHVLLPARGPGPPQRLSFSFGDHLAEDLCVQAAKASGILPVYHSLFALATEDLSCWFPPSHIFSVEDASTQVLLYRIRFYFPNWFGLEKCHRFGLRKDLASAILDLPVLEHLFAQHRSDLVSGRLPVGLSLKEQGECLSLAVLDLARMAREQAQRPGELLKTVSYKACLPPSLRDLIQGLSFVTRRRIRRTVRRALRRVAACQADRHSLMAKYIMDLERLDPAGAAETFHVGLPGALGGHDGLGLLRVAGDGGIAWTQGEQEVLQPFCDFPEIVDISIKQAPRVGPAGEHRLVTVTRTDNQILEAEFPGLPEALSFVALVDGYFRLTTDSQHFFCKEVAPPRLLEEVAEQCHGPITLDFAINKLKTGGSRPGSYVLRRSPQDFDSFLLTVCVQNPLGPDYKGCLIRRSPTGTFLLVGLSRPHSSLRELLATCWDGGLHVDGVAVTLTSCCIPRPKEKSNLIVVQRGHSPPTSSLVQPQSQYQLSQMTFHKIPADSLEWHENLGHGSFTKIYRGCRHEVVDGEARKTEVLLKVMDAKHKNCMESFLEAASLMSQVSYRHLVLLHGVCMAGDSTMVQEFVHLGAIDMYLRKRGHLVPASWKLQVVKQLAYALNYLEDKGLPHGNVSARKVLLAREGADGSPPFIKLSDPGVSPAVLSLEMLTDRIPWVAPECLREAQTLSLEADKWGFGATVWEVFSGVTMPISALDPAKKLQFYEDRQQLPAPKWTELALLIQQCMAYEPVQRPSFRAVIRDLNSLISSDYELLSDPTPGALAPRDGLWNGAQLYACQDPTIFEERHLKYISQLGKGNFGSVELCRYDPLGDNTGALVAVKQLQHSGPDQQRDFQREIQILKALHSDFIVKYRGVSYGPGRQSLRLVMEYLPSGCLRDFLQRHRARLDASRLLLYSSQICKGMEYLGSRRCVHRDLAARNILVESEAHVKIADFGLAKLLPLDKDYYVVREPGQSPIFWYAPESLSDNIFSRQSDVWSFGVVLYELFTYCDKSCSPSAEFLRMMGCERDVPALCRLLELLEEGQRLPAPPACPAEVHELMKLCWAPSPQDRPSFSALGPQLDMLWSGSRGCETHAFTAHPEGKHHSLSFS

Chain of Cyclin-dependent kinase 1 (P06493 whole entry): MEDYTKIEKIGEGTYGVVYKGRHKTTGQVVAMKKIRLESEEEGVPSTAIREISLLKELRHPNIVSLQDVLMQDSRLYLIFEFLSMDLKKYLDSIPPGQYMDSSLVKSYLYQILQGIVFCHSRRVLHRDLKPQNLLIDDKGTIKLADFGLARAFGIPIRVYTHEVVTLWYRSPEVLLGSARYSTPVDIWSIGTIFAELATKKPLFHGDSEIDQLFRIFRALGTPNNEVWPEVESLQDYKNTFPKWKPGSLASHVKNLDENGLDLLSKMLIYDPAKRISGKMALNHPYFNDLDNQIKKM
Chain of Interleukin-1 receptor-associated kinase 1 (P51617 whole entry): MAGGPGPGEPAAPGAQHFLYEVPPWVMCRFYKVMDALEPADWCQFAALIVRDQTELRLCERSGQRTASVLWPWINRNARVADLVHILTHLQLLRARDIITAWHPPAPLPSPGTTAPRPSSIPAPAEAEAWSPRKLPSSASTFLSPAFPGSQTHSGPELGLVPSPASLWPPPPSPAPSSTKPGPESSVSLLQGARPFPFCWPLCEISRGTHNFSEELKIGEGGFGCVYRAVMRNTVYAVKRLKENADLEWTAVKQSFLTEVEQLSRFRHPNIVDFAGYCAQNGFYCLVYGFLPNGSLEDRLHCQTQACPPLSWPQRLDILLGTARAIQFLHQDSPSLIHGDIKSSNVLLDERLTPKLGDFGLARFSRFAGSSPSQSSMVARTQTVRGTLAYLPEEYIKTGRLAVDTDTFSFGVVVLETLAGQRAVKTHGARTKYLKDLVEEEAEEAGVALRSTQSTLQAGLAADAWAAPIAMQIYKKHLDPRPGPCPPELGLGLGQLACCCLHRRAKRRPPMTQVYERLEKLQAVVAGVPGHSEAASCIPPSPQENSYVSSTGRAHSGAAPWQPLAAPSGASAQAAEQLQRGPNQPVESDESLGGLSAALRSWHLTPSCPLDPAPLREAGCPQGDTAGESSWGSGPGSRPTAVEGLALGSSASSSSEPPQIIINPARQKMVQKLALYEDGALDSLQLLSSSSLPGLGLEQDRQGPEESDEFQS
Chain of Tyrosine-protein kinase JAK1 (P23458 whole entry): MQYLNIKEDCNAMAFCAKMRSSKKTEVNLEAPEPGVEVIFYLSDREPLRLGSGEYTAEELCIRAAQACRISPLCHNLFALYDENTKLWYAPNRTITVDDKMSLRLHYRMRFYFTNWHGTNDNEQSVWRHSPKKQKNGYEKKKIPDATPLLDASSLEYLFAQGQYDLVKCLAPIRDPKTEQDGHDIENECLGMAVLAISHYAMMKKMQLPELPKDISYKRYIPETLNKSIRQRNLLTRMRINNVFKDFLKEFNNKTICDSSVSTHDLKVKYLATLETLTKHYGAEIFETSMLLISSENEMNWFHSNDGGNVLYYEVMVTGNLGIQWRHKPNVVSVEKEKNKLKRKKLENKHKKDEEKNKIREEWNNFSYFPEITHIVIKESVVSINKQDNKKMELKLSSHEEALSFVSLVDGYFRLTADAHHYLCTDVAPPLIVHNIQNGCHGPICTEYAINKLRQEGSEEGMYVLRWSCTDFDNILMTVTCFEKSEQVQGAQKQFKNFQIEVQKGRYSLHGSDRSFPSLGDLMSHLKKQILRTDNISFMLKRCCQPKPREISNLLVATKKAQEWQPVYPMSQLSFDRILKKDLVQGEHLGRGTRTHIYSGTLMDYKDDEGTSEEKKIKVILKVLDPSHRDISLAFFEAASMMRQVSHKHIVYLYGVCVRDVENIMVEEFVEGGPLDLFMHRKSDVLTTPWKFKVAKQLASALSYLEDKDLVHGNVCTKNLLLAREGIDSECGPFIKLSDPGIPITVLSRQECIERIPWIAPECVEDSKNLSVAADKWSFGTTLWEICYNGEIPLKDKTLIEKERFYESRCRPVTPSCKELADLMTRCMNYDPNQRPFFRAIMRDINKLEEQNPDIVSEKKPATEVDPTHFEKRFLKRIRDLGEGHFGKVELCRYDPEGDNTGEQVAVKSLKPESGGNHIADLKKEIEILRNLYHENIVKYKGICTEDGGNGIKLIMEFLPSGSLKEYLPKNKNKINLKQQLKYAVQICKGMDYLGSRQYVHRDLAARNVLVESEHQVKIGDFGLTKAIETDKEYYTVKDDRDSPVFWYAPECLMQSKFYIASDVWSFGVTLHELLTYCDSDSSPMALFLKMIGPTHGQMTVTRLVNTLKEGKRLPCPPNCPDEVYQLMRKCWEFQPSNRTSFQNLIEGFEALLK
Chain of Bifunctional protein GlmU (C3SLB7 whole entry): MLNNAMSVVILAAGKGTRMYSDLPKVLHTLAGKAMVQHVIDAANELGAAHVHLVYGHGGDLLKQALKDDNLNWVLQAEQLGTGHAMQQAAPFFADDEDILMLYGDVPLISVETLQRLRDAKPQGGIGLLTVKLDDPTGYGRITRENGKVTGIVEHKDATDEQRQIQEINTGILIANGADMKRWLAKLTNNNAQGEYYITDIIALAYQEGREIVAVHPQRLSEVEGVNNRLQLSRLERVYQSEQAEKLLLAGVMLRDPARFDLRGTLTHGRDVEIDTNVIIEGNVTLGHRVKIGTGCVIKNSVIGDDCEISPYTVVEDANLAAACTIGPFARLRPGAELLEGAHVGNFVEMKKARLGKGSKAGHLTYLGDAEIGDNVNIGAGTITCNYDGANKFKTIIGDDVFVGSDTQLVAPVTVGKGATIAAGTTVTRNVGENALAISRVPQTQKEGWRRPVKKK
Chain of Tyrosine-protein kinase JAK2 (O60674 whole entry): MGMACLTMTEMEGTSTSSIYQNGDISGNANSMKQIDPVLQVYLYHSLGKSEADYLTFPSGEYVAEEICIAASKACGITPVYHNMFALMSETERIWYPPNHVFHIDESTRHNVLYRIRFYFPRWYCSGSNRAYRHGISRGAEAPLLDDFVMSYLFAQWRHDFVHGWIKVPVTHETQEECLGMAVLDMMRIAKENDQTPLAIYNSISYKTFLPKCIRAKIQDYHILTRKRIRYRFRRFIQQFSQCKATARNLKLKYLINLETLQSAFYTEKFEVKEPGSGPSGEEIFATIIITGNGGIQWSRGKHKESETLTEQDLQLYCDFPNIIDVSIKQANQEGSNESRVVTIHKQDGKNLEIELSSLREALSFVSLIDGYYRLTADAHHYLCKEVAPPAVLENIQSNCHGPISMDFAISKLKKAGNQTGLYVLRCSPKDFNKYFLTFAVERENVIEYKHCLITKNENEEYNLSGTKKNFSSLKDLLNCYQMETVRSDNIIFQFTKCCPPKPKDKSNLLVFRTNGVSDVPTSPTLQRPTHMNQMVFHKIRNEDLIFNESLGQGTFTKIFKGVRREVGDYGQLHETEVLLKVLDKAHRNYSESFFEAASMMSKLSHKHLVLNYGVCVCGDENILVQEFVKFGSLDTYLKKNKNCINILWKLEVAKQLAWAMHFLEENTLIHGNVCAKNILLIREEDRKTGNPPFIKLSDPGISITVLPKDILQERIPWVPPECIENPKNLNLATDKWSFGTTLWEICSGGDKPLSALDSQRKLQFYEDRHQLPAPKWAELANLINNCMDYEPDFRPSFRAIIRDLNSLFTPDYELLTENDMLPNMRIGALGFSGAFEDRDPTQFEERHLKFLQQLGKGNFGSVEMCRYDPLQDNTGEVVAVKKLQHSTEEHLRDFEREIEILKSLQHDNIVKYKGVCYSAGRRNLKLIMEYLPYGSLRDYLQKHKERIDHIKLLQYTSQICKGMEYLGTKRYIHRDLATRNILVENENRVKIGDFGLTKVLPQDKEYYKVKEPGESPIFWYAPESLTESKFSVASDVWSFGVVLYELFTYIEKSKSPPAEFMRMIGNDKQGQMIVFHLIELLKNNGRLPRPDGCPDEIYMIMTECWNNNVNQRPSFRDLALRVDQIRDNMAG
Chain of Cyclin-dependent kinase 9 (P50750 whole entry): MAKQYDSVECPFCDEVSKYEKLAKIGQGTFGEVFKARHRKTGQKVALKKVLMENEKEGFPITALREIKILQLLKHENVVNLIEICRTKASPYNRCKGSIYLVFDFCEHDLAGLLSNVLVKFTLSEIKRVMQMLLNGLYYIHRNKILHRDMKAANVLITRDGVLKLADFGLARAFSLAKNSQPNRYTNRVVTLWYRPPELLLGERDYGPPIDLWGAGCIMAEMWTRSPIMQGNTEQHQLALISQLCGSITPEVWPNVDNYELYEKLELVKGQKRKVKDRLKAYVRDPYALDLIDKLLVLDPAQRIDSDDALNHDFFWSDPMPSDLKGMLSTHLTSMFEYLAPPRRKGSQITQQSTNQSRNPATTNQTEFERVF
Chain of Aurora kinase B (Q96GD4 whole entry): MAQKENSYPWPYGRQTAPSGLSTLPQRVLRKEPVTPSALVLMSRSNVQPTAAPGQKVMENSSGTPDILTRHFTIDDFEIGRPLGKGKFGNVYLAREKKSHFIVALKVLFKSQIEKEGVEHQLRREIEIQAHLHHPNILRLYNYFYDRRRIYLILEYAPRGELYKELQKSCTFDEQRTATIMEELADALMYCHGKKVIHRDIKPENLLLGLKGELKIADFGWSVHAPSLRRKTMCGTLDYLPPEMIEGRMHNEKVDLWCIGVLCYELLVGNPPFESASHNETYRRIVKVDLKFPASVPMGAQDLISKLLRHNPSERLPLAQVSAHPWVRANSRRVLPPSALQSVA

pIC50 [1]	fraction unbound at 0.5 h, 10 µM [2]	pIC50 [3]	pIC50 [4]	pIC50 [5]	pIC50 [6]	pIC50 [7]	pIC50 [8]	pIC50 [9]	pIC50 [10]	pIC50 (Aurora kinase B)	pIC50 [11]	Structure (SMILES)
5.77	0.016	< 4.66	–	–	–	–	–	–	–	–	–	COc1cc(C(=O)Nc2ccc(NC(=O)c3ccccn3)cc2)cc(-c2nc(=O)o[nH]2)c1
7.70	0.019	6.59	–	–	–	–	–	–	–	–	–	COc1cc(C(=O)Nc2ccc(NC(=O)c3ccccc3)cc2)cc(-c2c[nH]c(=O)[nH]c2=O)c1O
6.01	< 0.01	5.38	–	–	–	–	–	–	–	–	–	COc1cc(C(=O)Nc2ccc(NC(=O)c3ccccn3)cc2)cc(-c2cnc(=O)[nH]c2)c1
8.30	0.019	6.46	< 4.52	< 4.52	< 4.52	< 4.52	< 4.52	< 4.52	< 4.52	5.12	< 4.52	O=C(Nc1ccc(NC(=O)c2ccccn2)cc1)c1cccc(-c2c[nH]c(=O)[nH]c2=O)c1
5.85	< 0.01	4.74	< 4.52	< 4.52	< 4.52	< 4.52	< 4.52	< 4.52	< 4.52	< 4.52	< 4.52	COc1cc(C(=O)Nc2ccc(NC(=O)c3ccccc3)cc2)ccc1O
2.71	–	–	–	–	–	–	–	–	–	–	–	O=c1[nH]cc(-c2cccc([N+](=O)[O-])c2)c(=O)[nH]1
7.30	< 0.01	5.51	< 4.52	< 4.52	< 4.52	< 4.52	< 4.52	< 4.52	< 4.52	4.64	< 4.52	O=C(Nc1ccc(NC(=O)c2ccccn2)cc1)c1ccc(O)c([N+](=O)[O-])c1
7.15	0.097	5.77	< 4.52	< 4.52	< 4.52	< 4.52	< 4.52	< 4.52	< 4.52	4.84	< 4.52	COc1cc(C(=O)Nc2ccc(NC(=O)c3ccccn3)cc2)cc(N2CCC(=O)NC2=O)c1
4.30	–	–	–	–	–	–	–	–	–	–	–	O=c1[nH]cc(-c2cccc(Br)c2)c(=O)[nH]1
6.02	< 0.01	< 4.66	< 4.52	< 4.52	< 4.52	< 4.52	< 4.52	< 4.52	< 4.52	< 4.52	< 4.52	COc1ccc(C(=O)Nc2ccc(NC(=O)c3ccccn3)cc2)cc1-c1c[nH]c(=O)[nH]c1=O
6.26	0.032	4.68	–	–	–	–	–	–	–	–	–	COc1cc(C(=O)Nc2ccc(NC(=O)c3ccccn3)cc2)cc(-c2nn[nH]n2)c1
8.77	–	7.57	< 4.52	< 4.52	< 4.52	< 4.52	< 4.52	< 4.52	< 4.52	< 4.52	< 4.52	COc1cc(C(=O)Nc2ccc(NC(=O)c3ccccn3)cc2)cc(-c2c[nH]c(=O)[nH]c2=O)c1

Second part, the compound before the results:

Structure (SMILES)	pIC50 [1]	fraction unbound at 0.5 h, 10 µM [2]	pIC50 [3]	pIC50 [4]	pIC50 [5]	pIC50 [6]	pIC50 [7]	pIC50 [8]	pIC50 [9]	pIC50 [10]	pIC50 (Aurora kinase B)	pIC50 [11]
COc1cc2c(Nc3ccc(NC(=O)c4ccccc4)cc3)ncnc2cc1O	6.59	–	5.89	< 4.52	< 4.52	< 4.52	< 4.52	< 4.52	< 4.52	< 4.52	6.56	< 4.52
COc1cc2c(Nc3ccc(NC(=O)c4ccccc4)cc3)nc(C)nc2cc1O	6.41	0.097	5.66	< 4.52	< 4.52	< 4.52	< 4.52	< 4.52	< 4.52	< 4.52	< 4.52	< 4.52
COc1cc2c(Nc3ccc(NC(=O)c4ccccc4)cc3)ncnc2cc1OCC(=O)O	5.49	< 0.01	5.17	< 4.52	< 4.52	< 4.52	< 4.52	< 4.52	< 4.52	< 4.52	6.16	< 4.52
COc1cc2c(Nc3ccc(NC(=O)c4ccccc4)cc3)ncnc2cc1OCC(N)=O	< 4.66	–	< 4.66	< 4.52	< 4.52	< 4.52	< 4.52	< 4.52	< 4.52	< 4.52	6.81	< 4.52
COc1cc2c(Nc3ccc(NC(=O)c4ccccc4)cc3)ncnc2cc1OCCO	4.72	–	4.46	< 4.52	< 4.52	< 4.52	< 4.52	< 4.52	< 4.52	4.61	7.56	< 4.52
COc1cc2c(Nc3ccc(NC(=O)c4ccccc4)cc3)nc(NCCc3ccccn3)nc2cc1O	6.42	< 0.01	6.19	< 4.52	< 4.52	< 4.52	< 4.52	< 4.52	< 4.52	6.24	< 4.52	< 4.52
COc1cc2c(Nc3ccc(NC(=O)c4ccccc4)cc3)nc(Cc3ccccc3)nc2cc1O	5.74	< 0.01	5.32	–	–	–	–	–	–	–	–	–
COc1cc2c(Nc3ccc(NC(=O)c4ccccc4)cc3)nc(Cl)nc2cc1O	6.19	0.021	6.43	–	–	–	–	–	–	–	–	–
COc1cc(C(=O)Nc2ccc(NC(=O)c3ccccc3)cc2)ccc1OCC(N)=O	< 4.66	–	< 4.66	–	–	–	–	–	–	–	–	–
COc1cc(C(=O)Nc2ccc(NC(=O)c3ccccc3)cc2)ccc1OCC(=O)O	4.64	–	< 4.17	< 4.52	< 4.52	< 4.52	< 4.52	< 4.52	< 4.52	< 4.52	< 4.52	< 4.52
COc1cc2c(Nc3ccc(NC(=O)c4ccccc4)cc3)nc(-c3ccccn3)nc2cc1O	5.82	< 0.01	5.57	–	–	–	–	–	–	–	–	–
COc1cc2c(Nc3ccc(NC(=O)c4ccccc4)cc3)nc(NCCCn3ccnc3)nc2cc1O	5.95	0.012	5.35	–	–	–	–	–	–	–	–	–
